According to PubChem BioAssay (NCI):
Where “and” joins values, the source holds several entries; their conditions need not be identical. Equal values may be shown once.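 Five compound concentrations were applied to cells in 96-well plates for 48 hours; endpoints were derived by simple linear interpolation of the resulting dose-response curve. At the GI50, growth is halved. TGI is the concentration that stops growth completely.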

Experiments:
Experiment in all cases: inhibition of tumour cell growth, NCI panel, 48 h
[1] = system: BT-549 breast
[2] = system: ACHN renal
[3] = system: 786-0 renal
[4] = system: K-562 leukemia
[5] = system: SF-268 CNS
[6] = system: CCRF-CEM leukemia
[7] = system: MDA-MB-231 breast
[8] = system: SK-MEL-5 melanoma
[9] = system: PC-3 prostate
[10] = system: RXF 393 renal

Structure (SMILES)	GI50 [1]	TGI [1]	GI50 [2]	TGI [2]	GI50 [3]	TGI [3]	GI50 [4]	TGI [4]	GI50 [5]	TGI [5]	GI50 [6]	TGI [6]	GI50 [7]	TGI [7]	GI50 [8]	TGI [8]	GI50 [9]	TGI [9]	GI50 [10]	TGI [10]
Nc1ccccc1NC(=O)c1ccc(CN2CCC/C(=C\c3ccccn3)C2=O)cc1	3200 nM	> 100000 nM	1260 nM	> 100000 nM	2710 nM	30200 nM	414 nM	> 100000 nM	2960 nM	13000 nM	645 nM	> 100000 nM	4040 nM	> 100000 nM	1460 nM	3790 nM	1330 nM	> 100000 nM	755 nM	3480 nM
Cc1[nH]c(C(=O)Nc2ccccc2OC2CCNCC2)c(Cl)c1Cl	895 nM	1700 nM	995 nM	2050 nM	817 nM	1570 nM	1660 nM	5260 nM	760 nM	1650 nM	1370 nM	3890 nM	895 nM	1760 nM	880 nM	1590 nM	1390 nM	5230 nM	816 nM	1560 nM
CCN(Cc1ccccc1Cl)c1ccc(CO)c(Cl)c1	15800 nM	29900 nM	13700 nM	27300 nM	12800 nM	26100 nM	1630 nM	14600 nM	15500 nM	30000 nM	16600 nM	38300 nM	13100 nM	26200 nM	4110 nM	17100 nM	12500 nM	25800 nM	3750 nM	20000 nM
CCC(CCC(C)C1CCC2C3CC=C4CC(OC5OC(CO)C(O)C(O)C5O)CCC4(C)C3CCC12C)C(C)C (centres undefined)		> 100000 nM		> 100000 nM		> 100000 nM				> 100000 nM		> 100000 nM		> 100000 nM		> 100000 nM		> 100000 nM		> 100000 nM
NC(=S)N/N=C/c1ccc(N)cn1		> 10000 nM		7650 nM		> 10000 nM		> 10000 nM		> 10000 nM		> 10000 nM		> 10000 nM		> 6950 nM		> 10000 nM		> 10000 nM
Clc1cc2c(nn1)Nc1ccccc1S2	> 100000 nM	> 100000 nM	> 100000 nM	> 100000 nM	> 100000 nM	> 100000 nM	> 100000 nM	> 100000 nM	> 100000 nM	> 100000 nM	> 100000 nM	> 100000 nM	> 100000 nM	> 100000 nM	> 100000 nM	> 100000 nM	> 100000 nM	> 100000 nM	> 100000 nM	> 100000 nM
O=C(c1ccco1)c1c(C(F)(F)F)nc2ccc(C(F)(F)F)cc2[n+]1[O-]	24100 nM	59800 nM	23400 nM	60000 nM	27000 nM	62000 nM	> 73800 nM	> 100000 nM	33300 nM	99500 nM		> 49400 nM	23700 nM	65400 nM	31400 nM	> 67100 nM	41900 nM	> 100000 nM	26500 nM	62200 nM
CCCCCCCCCCCCCCCC(=O)N[C@H](/C=C/[C@H](O)CCCCCCCCCCCCC)CO	> 100000 nM	> 100000 nM	> 100000 nM	> 100000 nM	> 100000 nM	> 100000 nM	> 100000 nM	> 100000 nM	> 100000 nM	> 100000 nM	> 100000 nM	> 100000 nM	> 100000 nM	> 100000 nM	> 100000 nM	> 100000 nM	> 100000 nM	> 100000 nM	> 100000 nM	> 100000 nM
C/C(=N\NC(=S)N1CCN(C2CCCCCC2)CC1)c1ccccn1		2780 nM	1.21 nM	2700 nM	12.1 nM	3580 nM and 1950 nM	< 1 nM	1670 nM and 970 nM		5500 nM	< 1 nM	291 nM and 2400 nM		2850 nM	20.4 nM	8380 nM and 1010 nM		2070 nM	2450 nM	2500 nM
C=C1COC(O)(C2OCOC(C3CC(=O)NC(=O)C3)C2O)C1C (centres undefined)	18.7 nM	73.9 nM	3.52 nM	198 nM and 35.5 nM	3.62 nM	53.2 nM	2.41 nM	41.1 nM	5.77 nM	42.3 nM and 33 nM		7.44 nM		32.8 nM	1.66 nM	4.59 nM and 3.85 nM	6.29 nM	50.1 nM	1.34 nM	7.59 nM and 17.7 nM and 10.4 nM
Cc1cc2nc3ccc(=[N+](C)C)cc-3sc2cc1N	2750 nM and 2090 nM	19700 nM and 25200 nM and 18200 nM	844 nM and 1100 nM		1820 nM and 760 nM	10100 nM and 17700 nM and 4300 nM	201 nM and 318 nM		351 nM and 956 nM		279 nM and 310 nM		739 nM and 284 nM	7510 nM and 7940 nM and 1330 nM	145 nM and 284 nM	324 nM and 1810 nM and 1330 nM	121 nM and 173 nM	2650 nM and 7200 nM and 3430 nM	1700 nM and 1940 nM	6930 nM and 22200 nM and 8170 nM
N#CC1(Nc2ccc(-c3ccc(NC4(C#N)CCCC4)cc3)cc2)CCCC1		> 100000 nM		> 100000 nM		> 100000 nM		> 100000 nM		> 100000 nM		61200 nM		> 100000 nM		> 100000 nM		> 100000 nM		> 100000 nM
O=C1C=CC(=Nc2ccccc2)c2ccccc21		28000 nM		27400 nM		24700 nM		42600 nM		24800 nM		> 100000 nM		11300 nM		2600 nM		22600 nM		23200 nM
NCCCn1c2c(c3ccc([N+](=O)[O-])cc3c1=O)C(=O)c1cc(-c3ccccc3)ccc1-2	2090 nM	3770 nM	1560 nM	3080 nM	181 nM	334 nM	44.3 nM	185 nM			238 nM	712 nM	1290 nM	2850 nM	1310 nM	2620 nM	1350 nM	2710 nM	1360 nM	2790 nM
O=c1c2cccc(F)c2sc2c(N3CCNCC3)nc3ccccc3c12	1580 nM	3060 nM	1190 nM	2430 nM	1740 nM	3280 nM			1550 nM	3260 nM	1330 nM	3180 nM	1610 nM	3100 nM	1690 nM	3080 nM	1260 nM	2700 nM	1310 nM	2620 nM
